A value given as a limit tells only on which side of the number the result lay.

Assay [1] concerns the target Kelch domain of human KEAP1 (321-624 aa) (Homo sapiens (Human), UniProt Q14145). Briefly: KEAP1 KELCH ThermoFluor binding assay.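 Also: Ligand-induced melting temperature shift of E. coli-expressed KEAP1 Kelch protein, Kd estimated from concentration-response curves of ΔTm.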 The conditions noted are these: KEAP Kelch […], 1,8-ANS, pH 7.0, average of results obtained, read-out: Tf Kd.
Text: The shift in the melting point described as a ΔTm is proportional to the concentration and affinity of the ligand. The compound potency may be compared as a rank order of either ΔTm values at a single compound concentration or in terms of KD values, estimated from concentration response curves.
The protein was expressed in E. coli with 6His tag that was cleaved prior to receipt for use.
Protein (KEAP Kelch) and compound solutions were dispensed into black 384-well polypropylene PCR microplates (Abgene) and overlayed with silicone oil (1 μL, Fluka, type DC 200) to prevent evaporation.
The subject of assay [2] is Glo-Response ARE-luc2P HEK293 cell line. The assay can be described thus: ARE luciferase reporter cell-based assay.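 Also: luciferase signal tracks Nrf2 activation of the ARE once compounds disrupt KEAP1-Nrf2 binding, read with One-Glo reagent, DMSO serving as low control.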 To be noted: Homo sapiens, HEK293, 24 h, average of results obtained. (In general: In a reporter assay the amount or activity of a reporter protein is the signal.)

Chain of Kelch domain of human KEAP1 (321-624 aa) (Q14145 321-624): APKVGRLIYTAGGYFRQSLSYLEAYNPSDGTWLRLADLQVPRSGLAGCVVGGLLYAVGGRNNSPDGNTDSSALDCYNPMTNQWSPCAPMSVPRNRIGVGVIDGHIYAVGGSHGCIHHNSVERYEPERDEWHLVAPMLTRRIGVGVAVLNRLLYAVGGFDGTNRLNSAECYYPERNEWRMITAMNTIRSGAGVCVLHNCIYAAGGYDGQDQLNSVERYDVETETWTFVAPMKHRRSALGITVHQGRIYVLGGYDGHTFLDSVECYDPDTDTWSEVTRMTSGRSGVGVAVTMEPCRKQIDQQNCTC

The Kd is the concentration at which binding is half-saturated. For orientation: EC50 means the concentration giving half of the maximal effect. Read a low EC50 as a more potent agent. Regarding `Cc1ccc([C@H](CC(=O)O)c2ccn3c(C(F)(F)F)nnc3c2C)cc1CN1CC(C)(C)Oc2ncccc2S1(=O)=O` (single isomer, unassigned) [Example 269, (*S)-3-(3-((4,4-Dimethyl-1,1-dioxido-3,4-dihydro-2H-pyrido[2,3-b][1,4,5]oxathiazepin-2-yl)methyl)-4-methylphenyl)-3-(8-methyl-3-(trifluoromethyl)-[1,2,4]triazolo[4,3-a]pyridin-7-yl)propanoic Acid], the equilibrium dissociation constant (Kd) in assay [1] was less than 1 nM. The same molecule registered an EC50 in assay [2] of 365 nM.
In the case of `Cc1ccc([C@@H](CC(=O)O)c2ccn3c(C(F)F)nnc3c2C)cc1CN1C[C@@H]2CCCCN2c2ncc(C#N)cc2S1(=O)=O` (single isomer, unassigned) [Example 29, (*R)-3-(3-(((*S)-3-Cyano-5,5-dioxido-7,7a,8,9,10,11-hexahydro-6H-dipyrido[2,1-d:2′,3′-f][1,2,5]thiadiazepin-6-yl)methyl)-4-methylphenyl)-3-(3-(difluoromethyl)-8-methyl-[1,2,4]triazolo[4,3-a]pyridin-7-yl)propanoic Acid], the Kd in assay [1] is less than 1 nM. Also, a half-maximal effect in assay [2] (EC50) was put at 50.9 nM.
On the same counts, the results for `CC[C@@H]1CN(Cc2cc(C(CC(=O)O)c3ccn4c(C(F)(F)F)nnc4c3)ccc2C)S(=O)(=O)c2cccnc2O1` (stereo partly drawn) [Example 256, 3-(3-(((R)-4-Ethyl-1,1-dioxido-3,4-dihydro-2H-pyrido[2,3-b][1,4,5]oxathiazepin-2-yl)methyl)-4-methylphenyl)-3-(3-(trifluoromethyl)-[1,2,4]triazolo[4,3-a]pyridin-7-yl)propanoic Acid] are less than 1 nM and 379 nM.
Consider `Cc1ccc([C@@H](c2ccn3c(C(F)F)nnc3c2C)C(C)(C)C(=O)O)nc1CN1CC2(CCOCC2)Oc2nc(OCCN3CCCC3)c(C)cc2S1(=O)=O` (single isomer, unassigned) [Example 644, (*S)-3-(3-(Difluoromethyl)-8-methyl-[1,2,4]triazolo[4,3-a]pyridin-7-yl)-2,2-dimethyl-3-(5-methyl-6-((8′-methyl-1′,1′-dioxido-7′-(2-(pyrrolidin-1-yl)ethoxy)-2,3,5,6-tetrahydrospiro[pyran-4,4′-pyrido[2,3-b][1,4,5]oxathiazepin]-2′(3′H)-yl)methyl)pyridin-2-yl)propanoic Acid], for which the Kd in assay [1] was less than 1 nM. In assay [2], this molecule registered an EC50 of 51.7 nM.
On the same counts, the results for `Cc1ccc([C@@H](CC(=O)O)c2ccn3c(C(F)(F)F)nnc3c2C)nc1CN1C[C@@H]2CCCCN2c2ncc(C#N)cc2S1(=O)=O` (single isomer, unassigned) [Example 34, (*S)-3-(6-(((*S)-3-Cyano-5,5-dioxido-7,7a,8,9,10,11-hexahydro-6H-dipyrido[2,1-d:2′,3′-f][1,2,5]thiadiazepin-6-yl)methyl)-5-methylpyridin-2-yl)-3-(8-methyl-3-(trifluoromethyl)-[1,2,4]triazolo[4,3-a]pyridin-7-yl)propanoic Acid] are less than 1 nM and 119 nM.
On the same counts, the results for `Cc1ccc([C@H](c2ccn3c(C(F)(F)F)nnc3c2C)C(C)(C)C(=O)O)cc1CN1CC2(CCOCC2)Oc2nc(N[C@@H](C)CCO)c(C)cc2S1(=O)=O` (single isomer, unassigned) [Example 123, (*R)-3-(3-((7′-(((S)-4-Hydroxybutan-2-yl)amino)-8′-methyl-1′,1′-dioxido-2,3,5,6-tetrahydrospiro[pyran-4,4′-pyrido[2,3-b][1,4,5]oxathiazepin]-2′(3′H)-yl)methyl)-4-methylphenyl)-2,2-dimethyl-3-(8-methyl-3-(trifluoromethyl)-[1,2,4[triazolo[4,3-a]pyridine-7-yl)propanoic Acid] are less than 1 nM and 28.9 nM.
As to `Cc1ccc([C@@H](c2ccn3c(C(F)F)nnc3c2C)C(C)(C)C(=O)O)cc1CN1CC2(COC2)Oc2ncccc2S1(=O)=O` (single isomer, unassigned) [Example 616, (*S)-3-(3-(difluoromethyl)-8-methyl-[1,2,4]triazolo[4,3-a]pyridine-7-yl)-3-(3-((1′,1′-dioxidospiro[oxetane-3,4′-pyrido[2,3-b][1,4,5]oxathiazepin]-2′(3′H)-yl)methyl)-4-methylphenyl)-2,2-dimethylpropanoic Acid], in assay [1], the Kd is less than 1 nM. In addition, in assay [2], the EC50 turned out to be 2.14 nM.
The like results for `Cc1cnc2c(c1)S(=O)(=O)N(Cc1cc([C@@H](c3ccn4c(C(F)(F)F)nnc4c3C)C(C)(C)C(=O)O)ccc1C)C[C@@]1(CCOC1)O2` (single isomer, unassigned) [Example 384, (*S)-2,2-Dimethyl-3-(4-methyl-3-(((*R)-8′-methyl-1′,1′-dioxido-4,5-dihydro-2H-spiro[furan-3,4′-pyrido[2,3-b][1,4,5]oxathiazepin]-2′(3′H)-yl)methyl)phenyl)-3-(8-methyl-3-(trifluoromethyl)-[1,2,4]triazolo[4,3-a]pyridin-7-yl)propanoic Acid] were, in that order, 246 nM and 150 nM.
For `CCn1nnc2c(C)c([C@@H](CC(=O)O)c3ccc(C)c(CN4CC5(CC5)Oc5ncccc5S4(=O)=O)n3)ccc21` (single isomer, unassigned) [Example 245, (*R)-3-(6-((1′,1′-Dioxidospiro[cyclopropane-1,4′-pyrido[2,3-b][1,4,5]oxathiazepin]-2′(3′H)-yl)methyl)-5-methylpyridin-2-yl)-3-(1-ethyl-4-methyl-1H-benzo[d][1,2,3]triazol-5-yl)propanoic Acid], the Kd in assay [1] is less than 1 nM. This molecule also returned an EC50 in assay [2] of 140 nM.
As to `Cc1cnc([C@H](c2ccn3c(C(F)F)nnc3c2C)C(C)(C)C(=O)O)cc1CN1CC2(CC2)Oc2nc(OCCN3CCCC3)c(C)cc2S1(=O)=O` (single isomer, unassigned) [Example 635, (*R)-3-(3-(Difluoromethyl)-8-methyl-[1,2,4]triazolo[4,3-a]pyridin-7-yl)-2,2-dimethyl-3-(5-methyl-4-((8′-methyl-1′,1′-dioxido-7′-(2-(pyrrolidin-1-yl)ethoxy)spiro[cyclopropane-1,4′-pyrido[2,3-b][1,4,5]oxathiazepin]-2′(3′H)-yl)methyl)pyridin-2-yl)propanoic Acid], the Kd in assay [1] stood at 1190 nM. This molecule had an EC50 in assay [2] of 3590 nM.
On to `Cc1ccc([C@H](CC(=O)O)c2ccn3c(C(F)(F)F)nnc3c2C)cc1CN1CC2(COC2)Oc2ccc(F)cc2S1(=O)=O` (single isomer, unassigned) [Example 99, (*S)-3-(3-((8-Fluoro-1,1-dioxidospiro[benzo[b][1,4,5]oxathiazepine-4,3′-oxetan]-2(3H)-yl)methyl]-4-methylphenyl)-3-(8-methyl-3-(trifluoromethyl)-[1,2,4]triazolo[4,3-a]pyridin-7-yl)propanoic Acid], for which the Kd in assay [1] is less than 1 nM. In assay [2], this molecule had an EC50 of 5.8 nM.
Consider `Cc1ccc([C@@H](CC(=O)O)c2ccn3c(C(F)F)nnc3c2C)cc1CN1CC2(CC2)Oc2ncccc2S1(=O)=O` (single isomer, unassigned) [Example 474, (*R)-3-(3-(Difluoromethyl)-8-methyl-[1,2,4]triazolo[4,3-a]pyridin-7-yl)-3-(3-((1′,1′-dioxidospiro[cyclopropane-1,4′-pyrido[2,3-b][1,4,5]oxathiazepin]-2′(3′H)-yl)methyl)-4-methylphenyl)propanoic Acid], for which the Kd in assay [1] was less than 1 nM. The molecule also returned an EC50 in assay [2] of 1580 nM.
Turning to `Cc1ccc(C(CC(=O)O)c2ccc3c(nnn3CC3CC3)c2C)cc1CN1CC2(COC2)Oc2ncccc2S1(=O)=O` (centres unmarked) [Example 67], the Kd in assay [1] stood at 0.34 nM. In addition, the midpoint of the response in assay [2], the EC50, lay at 23 nM.

For the origin of these results see patent publication US10947252B2, “Inhibitors of KEAP1-Nrf2 protein-protein interaction” (Janssen Pharmaceutica NV, priority 2018, dated 2021).
